PubChem BioAssay AID1963846 (Molecular Pharmacology Branch, DTP, NCI, 2024)

System: 454973-116-R2-J3-PDC complex spheroid viability
Experiment: Anticancer human tumor 454973-116-R2-J3-PDC patient-derived pancreatic carcinoma cell line growth inhibition [POLQ]
Details: for IC50: curve of first compound; for viability, T/C: stronger effect = lower value
Summary of the method: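 Patient-derived tumour cells were co-cultured with HUVEC and mesenchymal stem cells as multicellular spheroids at 37 °C. They were treated with POLQ inhibitors (novobiocin, ART-558, RP6685) alone or combined with other agents. Top concentrations were at or near clinical Cmax (otherwise 10 microM; SN-38 at 1 microM), decreasing in half-log steps.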

[1] = second compound 0.0316 µM, first compound 0.0316 µM
[2] = second compound 0.0316 µM, first compound 0.1 µM
[3] = second compound 0.1 µM, first compound 0.0316 µM
[4] = second compound 0.1 µM, first compound 0.1 µM
[5] = second compound 0.316 µM, first compound 0.0316 µM
[6] = second compound 0.316 µM, first compound 0.1 µM
[7] = second compound 1 µM, first compound 0.0316 µM
[8] = second compound 1 µM, first compound 0.1 µM
[9] = second compound 3.16 µM, first compound 0.0316 µM
[10] = second compound 3.16 µM, first compound 0.1 µM
[11] = second compound 10 µM, first compound 0.0316 µM
[12] = second compound 10 µM, first compound 0.1 µM
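Further: spheroids exposed to drugs for seven days before measurement.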
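Wherever viability, T/C is given: percent viability relative to DMSO vehicle control wells taken as 100%.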

For `CC[C@@]1(O)C(=O)OCc2c1cc1n(c2=O)Cc2cc3c(CN(C)C)c(O)ccc3nc2-1` + Cc1cccc(N(C)C(=O)C2C(O)CCN2c2nc(C)cc(C(F)(F)F)c2C#N)c1, the IC50 (second compound 0.0316 µM) was 18.7 nM, the IC50 (second compound 0.1 µM) was 19.2 nM and the IC50 (second compound 0.316 µM) was 18.1 nM. For the same molecule, the IC50 (second compound 1 µM) was 18.6 nM, the IC50 (second compound 3.16 µM) was 16.8 nM and the IC50 (second compound 10 µM) was 19.1 nM. For the same molecule, the viability, T/C (second compound 0.0316 µM, first compound 0.000316 µM) was 92.2%, the viability, T/C (second compound 0.0316 µM, first compound 0.001 µM) was 102% and the viability, T/C (second compound 0.0316 µM, first compound 0.00316 µM) was 90.5%. For the same molecule, the viability, T/C (second compound 0.0316 µM, first compound 0.01 µM) was 85.3%, the viability, T/C [1] was 20.4% and the viability, T/C [2] was 16.1%. The viability, T/C (second compound 0.1 µM, first compound 0.000316 µM) was 104%, the viability, T/C (second compound 0.1 µM, first compound 0.001 µM) was 104% and the viability, T/C (second compound 0.1 µM, first compound 0.00316 µM) was 99.8%. For the same molecule, the viability, T/C (second compound 0.1 µM, first compound 0.01 µM) was 88.6%, the viability, T/C [3] was 20.2% and the viability, T/C [4] was 19.7%. The viability, T/C (second compound 0.316 µM, first compound 0.000316 µM) was 98.3%, the viability, T/C (second compound 0.316 µM, first compound 0.001 µM) was 118% and the viability, T/C (second compound 0.316 µM, first compound 0.00316 µM) was 113%. The viability, T/C (second compound 0.316 µM, first compound 0.01 µM) was 83.9%, the viability, T/C [5] was 18.4% and the viability, T/C [6] was 16.5%. It also gave a viability, T/C (second compound 1 µM, first compound 0.000316 µM) of 103%, a viability, T/C (second compound 1 µM, first compound 0.001 µM) of 106% and a viability, T/C (second compound 1 µM, first compound 0.00316 µM) of 97.1%. For the same molecule, the viability, T/C (second compound 1 µM, first compound 0.01 µM) was 84.9%, the viability, T/C [7] was 19.6% and the viability, T/C [8] was 19.8%. It also gave a viability, T/C (second compound 3.16 µM, first compound 0.000316 µM) of 116%, a viability, T/C (second compound 3.16 µM, first compound 0.001 µM) of 106% and a viability, T/C (second compound 3.16 µM, first compound 0.00316 µM) of 105%. For the same molecule, the viability, T/C (second compound 3.16 µM, first compound 0.01 µM) was 76%, the viability, T/C [9] was 16.8% and the viability, T/C [10] was 19.8%. The viability, T/C (second compound 10 µM, first compound 0.000316 µM) was 107%, the viability, T/C (second compound 10 µM, first compound 0.001 µM) was 96.6% and the viability, T/C (second compound 10 µM, first compound 0.00316 µM) was 97.3%. It also gave a viability, T/C (second compound 10 µM, first compound 0.01 µM) of 85.6%, a viability, T/C [11] of 21.3% and a viability, T/C [12] of 22.6%.
In the case of `O=c1[nH]cc(F)c(=O)[nH]1` + Cc1cccc(N(C)C(=O)C2C(O)CCN2c2nc(C)cc(C(F)(F)F)c2C#N)c1, the IC50 (second compound 0.0316 µM) is reported as 2930 nM, the IC50 (second compound 0.1 µM) is reported as 2680 nM and the IC50 (second compound 0.316 µM) is reported as 2560 nM. It also gave an IC50 (second compound 1 µM) of 2570 nM, an IC50 (second compound 3.16 µM) of 2530 nM and an IC50 (second compound 10 µM) of 2540 nM. It also gave a viability, T/C [1] of 99.3%, a viability, T/C [2] of 104% and a viability, T/C (second compound 0.0316 µM, first compound 0.316 µM) of 98.1%. It also gave a viability, T/C (second compound 0.0316 µM, first compound 1 µM) of 104%, a viability, T/C (second compound 0.0316 µM, first compound 3.16 µM) of 46.3% and a viability, T/C (second compound 0.0316 µM, first compound 10 µM) of 30.7%. The viability, T/C [3] was 109%, the viability, T/C [4] was 108% and the viability, T/C (second compound 0.1 µM, first compound 0.316 µM) was 111%. For the same molecule, the viability, T/C (second compound 0.1 µM, first compound 1 µM) was 102%, the viability, T/C (second compound 0.1 µM, first compound 3.16 µM) was 41.1% and the viability, T/C (second compound 0.1 µM, first compound 10 µM) was 33.1%. The viability, T/C [5] was 107%, the viability, T/C [6] was 115% and the viability, T/C (second compound 0.316 µM, first compound 0.316 µM) was 123%. It also gave a viability, T/C (second compound 0.316 µM, first compound 1 µM) of 96.9%, a viability, T/C (second compound 0.316 µM, first compound 3.16 µM) of 40.1% and a viability, T/C (second compound 0.316 µM, first compound 10 µM) of 37%. It also gave a viability, T/C [7] of 119%, a viability, T/C [8] of 112% and a viability, T/C (second compound 1 µM, first compound 0.316 µM) of 112%. It also gave a viability, T/C (second compound 1 µM, first compound 1 µM) of 95%, a viability, T/C (second compound 1 µM, first compound 3.16 µM) of 40% and a viability, T/C (second compound 1 µM, first compound 10 µM) of 31.6%. The viability, T/C [9] was 116%, the viability, T/C [10] was 118% and the viability, T/C (second compound 3.16 µM, first compound 0.316 µM) was 108%. The viability, T/C (second compound 3.16 µM, first compound 1 µM) was 93.4%, the viability, T/C (second compound 3.16 µM, first compound 3.16 µM) was 38.9% and the viability, T/C (second compound 3.16 µM, first compound 10 µM) was 32%. For the same molecule, the viability, T/C [11] was 116%, the viability, T/C [12] was 108% and the viability, T/C (second compound 10 µM, first compound 0.316 µM) was 104%. For the same molecule, the viability, T/C (second compound 10 µM, first compound 1 µM) was 92.2%, the viability, T/C (second compound 10 µM, first compound 3.16 µM) was 39.6% and the viability, T/C (second compound 10 µM, first compound 10 µM) was 30.9%.
